Each molecule was assayed on German cockroaches. Details: 2 μl per insect; evaluated after 24 hours; alone or with 10% solution (ETCH) of Tomadol 23-1.
Protocol: Dose-response evaluations were performed on 1-4 week old adults SJC Strain (S.C. Johnson & Son, Racine, Wis.) German cockroaches, Blattella germanica, L. Insects were individually transferred using a 7″ (18 cm) […] forceps to 100×20 mm polystyrene Petri dishes. The inside edge of the dishes was lightly coated with a layer of (1:3) mineral oil+petroleum jelly to minimize insect escape. Approximately 10 cockroaches were transferred to each dish and then anesthetized with a 15-25 second exposure to CO2. Anesthetized cockroaches were positioned with their ventral side up in the bottom of the Petri dish. A 2 μl drop of test solution was applied to the area between the meso- and methathoracic legs using a Rainen L-10 10 μl pipette. Control cockroaches were treated with a 2 μl drop of the solvent, 100% ethyl alcohol.
Structure—activity tests used to calculate LT50 values were scored approximately every 30 minutes for the first two hours following treatment followed by approximate hourly readings to hour 8 with a final reading at 24 hours. Cockroaches were scored as either alive (dorsal side up, active movement when abdomen prodded) or moribund/dead (dorsal side up and no movement when abdomen prodded or ventral side up and insect unable to right itself).

Structure (SMILES)	LC50 (%) [95% CI] [%]
CC1(C)C(C=C(Cl)Cl)C1C(=O)OC(C#N)c1ccc(F)c(Oc2ccccc2)c1 (centres unmarked) [cyfluthrin]	0.0050
COP(=O)(NC(C)=O)SC (centres unmarked) [acephate]	0.0051
CCOCn1c(-c2ccc(Cl)cc2)c(C#N)c(Br)c1C(F)(F)F [chlorfenapyr]	0.4062
CNC(=O)Oc1ccccc1OC(C)C [propoxur]	0.0101
O=[N+]([O-])NC1=NCCN1Cc1ccc(Cl)nc1 [imidacloprid]	0.0219
CN1COCN(Cc2cnc(Cl)s2)/C1=N\[N+](=O)[O-] [thiamethoxam]	0.0038
CN/C(=N\[N+](=O)[O-])NCc1cnc(Cl)s1 [clothianidin]	0.0020

Same assay, conditions: in words

Structure (SMILES)	synergy of insecticidal activity by Tomadol 23-1 (reduced the LC50)
COP(=O)(NC(C)=O)SC (centres unmarked) [acephate]	did not synergize

From patent US20140288061A1, “INSECTICIDE COMPOSITIONS AND PROCESS” (priority 2004, published 2014)
